Test results reported in patent publication US10251860B2, “Compounds for bone healing” (University of Pittsburgh—Of the Commonwealth System of …, priority 2015, dated 2019).
“Also recorded” adds a separate entry of the source.

What was measured:
[1] = system: C57BL/6NTac female mice, tibia holes; assay: Bone wound healing in drilled mouse tibias (high resolution CT); assay type: in vivo; details: day 21
Method: Eighteen C57BL/6NTac female mice were divided into 2 groups of 9 mice. The first group was placed on water containing 400 μM MMS350. One week later the MMS350 mice were injected IP with 20 mg/kg MMS350 in water 15 minutes before irradiation. The control mice and the MMS350 treated mice were anesthetized with Nembutal and the right hind leg was irradiated to 20 Gy with the remainder of the mouse shielded from the irradiation. Twenty-four hours later holes were drilled into the tibias of all the mice. The MMS350 treated mice were kept on the MMS350 with the water changed weekly. Twenty-one days later the mice were sacrificed and both tibias removed, and fixed. The tibias were imaged using a high resolution CT. The holes in the tibias were measured and the volume of the holes determined.

[2] = system: C57BL/6NTac mice, 9.5 Gy total body irradiation; assay: Total body irradiation survival (hematopoietic syndrome); assay type: in vivo, mouse
Method: FIG. 13 is a graph of percent survival versus day, illustrating the in vivo mitigation of total body irradiation by MMS350. MMS350 was dissolved in water at a concentration of 2 mg/ml. C57BL/6NTac mice (n=15/group) were irradiated to 9.5 Gy total body irradiation and injected intraperitoneally with 10 mg/kg of MMS350 at 4 or 24 hours after irradiation. The mice were followed for the development of the hematopoietic syndrome at which time the mice were sacrificed.
Mice were irradiated using JL Shepherd Mark 1 Model 68 irradiator to 9.25 total body irradiation dose or a Varian Linear Accelerator (Varian Medical Systems, Inc, Palo Alto, Calif.) to 20 Gy for pulmonary irradiation according to published methods (2, 10, 13).
(§1) Mice were injected intra-peritoneally with MMS350 or JP4-039 (GS-nitroxide) in 50% cremphor/50% ethanol according to published methods. For long-term administration of MMS350, the drug was administered in water bottles with bottles changed every 7 days. The dose of drug per bottle was 100 μM MMS350 starting on day 88. The estimated total amount consumed by each animal daily was 10.9 μg based on a mouse drinking 5 ml of water per day. Chimeric mice irradiated to the thoracic cavity were placed 30 days later on MMS350 in water containing 100 mM MMS350. On day 88 after thoracic irradiation of non-chimeric mice, mice were placed on […] MMS350 in drinking water.

[3] = system: breast cancer cell line (MDA-MB-231); assay type: cell-based
Source text: (§2) The cellular toxicity of sulfoxide 3 was further determined for a breast cancer cell line (MDA-MB-231) and a liver cell line (HepG2).

liver cell line (HepG2) = assay type: cell-based
Source text: as §2

[4] = system: C57BL/6NTac mice, 20 Gy thoracic irradiation; assay: Radiation pulmonary fibrosis after 20 Gy thoracic irradiation; assay type: in vivo, mouse; details: MMS350 in drinking water
Source text: For lung irradiation, mice were irradiated to the thoracic cavity with shielding of the head and neck region and abdomen and lower body according to published methods. Animals received 20 Gy single fraction thoracic irradiation and were then maintained according to IACUC directed laboratory conditions. Mice were sacrificed at serial time points after thoracic irradiation including pre-irradiation, days 2, 7, 14, 28, 50, 75, 100, 110, 150 and 200 post-irradiation. Lungs were removed and sagittal sections assayed for percent of lung replaced by fibroblasts and organizing alveolitis according to published methods. Representative lung lobes from the same animals were tested by RT-PCR for level of detectable message for inflammatory cytokines, redox sensitive promoters, and levels of MnSOD.
Lungs from irradiated and luc+ cell line injected mice were removed and serial sectioned. Sections were stained for luc+, GFP+ cells, BrdU incorporation, and for quantitation of percent lung replaced by fibrosis (organizing alveolitis) according to published methods.
as §1

Brine shrimp = Brine shrimp toxicity assay; assay type: in vivo
Method: General procedure for brine shrimp toxicity assays. Sample preparation. Stock solutions of 3 were prepared by dissolving 3 (50.0 mg) in 5.0 HPLC grade water (5.0 mL), (solution A) and 3 (2.50 g) in HPLC grade water (10.0 mL) (solution B). Stock solutions of DMSO were prepared by diluting DMSO (45 μL) with HPLC grade water (5.0 mL) (solution C) and DMSO (2.27 mL) with HPLC grade water (10.0 mL) (solution D).
In each case, 5 replicates were performed. Each replicate was performed in a 2 dram vial marked at the 4 and 5 mL volume points. To each vial was added artificial sea water (3 mL) followed by the appropriate volume of stock solution. For set 1 (1.0 mg/mL), solution A (0.500 mL) or solution C (0.500 mL) was added. For set 2 (5.0 mg/mL), solution B (0.100 mL) or solution D (0.100 mL) was added to each vial. For set 3 (20.0 mg/mL), solution B (0.400 mL) or solution D (0.400 mL) was added to each vial. For set 4 (50.0 mg/mL), solution B (1.00 mL) or solution D (1.00 mL) was added to each vial. Controls containing HPLC grade water (0.100 mL, 0.400 mL, and 1.00 mL) were prepared in the same manner, and five replicates of each control were prepared.
Brine shrimp eggs (San Francisco Bay Brand) were hatched in a commercial salt mixture (Instant Ocean). Constant aeration was provided using a pump and airstone, and illumination was maintained using a desk lamp. The shrimp were collected in a separate tank after 48 hours and used within 3-4 hours of collection.
Brine shrimp were added to each vial using a plastic transfer pipet. After the shrimp were transferred, artificial sea-water was added until the volume reached the 5-mL mark. One drop of a yeast suspension prepared by suspending 11 mg yeast in sea-water (20 mL) was added to each vial. The shrimp were counted at t=24 hours. Another drop of freshly prepared yeast solution (6 mg in 10 mL sea water) was added, the vials were maintained under illumination, and shrimp were counted at t=48 hours.

[5] = system: 320 cl 3 murine hematopoietic cells; assay: Apoptotic markers after 5 Gy irradiation in vitro; assay type: cell-based; details: 24 hours after irradiation
Source text: Caspase-3 cleavage and Parpl cleavage illustrated the effects on apoptosis. […] Materials and Methods: Overall Design of Studies (Table 7).

## CC1(C[S+]([O-])CC2(C)COC2)COC1 [Compound 3, 3,3′-Sulfinylbis(methylene)bis(3-methyloxetane)]
[1]; 0 Gy tibia vs control 0 Gy, 400 μM in water plus 20 mg/kg IP
  diameter of tibia hole: significantly smaller
[1]; 0 Gy+ MMS350 vs control 20 Gy irradiated tibia
  volume of tibia hole: significantly smaller
[1]; 20 Gy irradiated tibia vs control 20 Gy
  diameter of tibia hole: significantly smaller
[1]; 20 Gy+ MMS350 vs control 20 Gy irradiated tibia
  volume of tibia hole: significantly smaller
[2]; 9.5 Gy TBI, 10 mg/kg intraperitoneally 4 hours after irradiation, p=0.0092
  survival: significantly increased survival
[2]; 9.5 Gy TBI, 10 mg/kg intraperitoneally 24 hours after irradiation, p=0.0097
  survival: significantly increased survival
[2]; intraperitoneal injection before or after 9.5 Gy TBI, C57BL/6 mice, n=15/group
  protection and mitigation against total body irradiation: both a protector when delivered prior to irradiation and mitigator when delivered after irradiation comparable to JP4-039
[2]; single dose 24 hours after 9.5 Gy TBI, C57BL/6/HNsd mice
  survival: significant improvement in survival
[3]
  GI50: ~200 mM
Liver cell line (HepG2)
  GI50: ~200 mM
[4]; 20 Gy thoracic irradiated mice
  survival: significantly increased survival
[4]; 20 Gy thoracic irradiation
  pulmonary fibrosis: decreased radiation pulmonary fibrosis; also recorded: significant decrease in pulmonary fibrosis
[4]; thoracic-irradiated mice, −MMS350 20.8 ± 3.9, p < 0.0001
  Percent Pulmonary Fibrosis: 3.6 ± 1.1%
Brine shrimp; 1 mg/mL
  % Mortality after 24 h: 0%
  % Mortality after 48 h: 0%
Brine shrimp; 5 mg/mL
  % Mortality after 24 h: 0%
  % Mortality after 48 h: 0%
Brine shrimp; 20 mg/mL
  % Mortality after 24 h: 0-10%
  % Mortality after 48 h: 0-10%
Brine shrimp; 50 mg/mL
  % Mortality after 24 h: 85%
  % Mortality after 48 h: 100%
Brine shrimp; concentrations up to 20 mg/mL
  mortality after 48 hours: < 10%
[5]; 5 Gy
  1C3-1/11 conversion (autophagy): no difference
  H2AX phosphorylation (DNA strand break repair): more prominent with MMS-350 than JP4-038
[5]; one-hour before or 30-minutes after 5 Gy
  mitochondrial markers of apoptosis: reduced mitochondrial markers of apoptosis
